Measurements as given in PubChem BioAssay (NCI).
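96-well plates; 48 h exposure; 5 concentrations. Endpoints by linear interpolation between flanking doses. Not reached: highest tested concentration assigned. TGI: concentration producing complete growth inhibition.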

Legend:
Test in all cases: inhibition of tumour cell growth, NCI panel, 48 h
[1] = tested on: 786-0 renal
[2] = tested on: COLO 205 colon
[3] = tested on: DU-145 prostate
[4] = tested on: HCT-15 colon
[5] = tested on: HS 578T breast
[6] = tested on: HT29 colon
[7] = tested on: LOX IMVI melanoma
[8] = tested on: MDA-N
[9] = tested on: NCI-H23 lung
[10] = tested on: NCI/ADR-RES ovarian
[11] = tested on: OVCAR-3 ovarian
[12] = tested on: PC-3 prostate
[13] = tested on: SK-MEL-2 melanoma
[14] = tested on: SK-OV-3 ovarian
[15] = tested on: UACC-62 melanoma
[16] = tested on: UO-31 renal
[17] = tested on: CAKI-1 renal
[18] = tested on: RXF 393 renal
[19] = tested on: T-47D breast
[20] = tested on: BT-549 breast

SMILES	TGI [1] [µM]	TGI [2] [µM]	TGI [3] [µM]	TGI [4] [µM]	TGI [5] [µM]	TGI [6] [µM]	TGI [7] [µM]	TGI [8] [µM]	TGI [9] [µM]	TGI [10] [µM]	TGI [11] [µM]	TGI [12] [µM]	TGI [13] [µM]	TGI [14] [µM]	TGI [15] [µM]	TGI [16] [µM]	TGI [17] [µM]	TGI [18] [µM]	TGI [19] [µM]	TGI [20] [µM]
COc1ccc(/C=C2\NC(=S)N(CN3CCCCC3)C2=O)cc1	> 100	85.6	> 100	> 100	42	41	93.3	> 100	> 100	> 100	> 100	> 100	> 100	> 100	> 100	> 100	–	–	–	–
C[C@H](OCc1ccccc1)C(=O)N1CCS(=O)(=O)N2CCC[C@H]2C1=O	> 100	> 100	–	> 100	–	> 100	> 100	–	> 100	–	> 100	–	–	> 100	> 100	> 100	> 100	> 100	–	–
O=[N+]([O-])c1ccc(-c2nnc(C34CC5CC(CC(C5)C3)C4)o2)cc1	> 100	> 100	> 100	> 100	> 100	> 100	> 100	> 100	> 100	> 100	> 100	> 100	> 100	> 100	> 100	> 100	> 100	> 100	> 100	–
O=[N+]([O-])c1ccc(-c2csc3nc(-c4ccccc4)nn23)cc1	> 100	> 100	> 100	> 100	> 100	> 100	> 100	> 100	> 100	> 100	> 100	> 100	> 100	> 100	> 100	> 100	> 100	> 100	–	> 100
COc1cc(Cn2c3ccccc3c3cc(C)c4c(c32)C=CC(C)(CCC=C(C)C)O4)cc2c1[nH]c1ccccc12 (stereo unspecified)	> 100	> 100	–	> 100	–	> 100	> 100	–	> 100	–	> 100	–	> 100	> 100	> 100	> 100	> 100	> 100	–	–
O=C(c1cccc2ccccc12)C1(Br)S(=O)(=O)OCCOS1(=O)=O	> 100	> 100	> 100	> 100	–	> 100	> 100	> 100	> 100	> 100	> 100	–	> 100	–	–	> 100	> 100	–	–	> 100
NC(=O)N=C(N(Cc1ccccc1)Cc1ccccc1)N(Cc1ccccc1)Cc1ccccc1	> 100	–	> 100	> 100	> 100	> 100	> 100	–	> 100	> 100	> 100	> 100	> 100	> 100	> 100	> 100	> 100	> 100	> 100	> 100
Cc1nc2cccc(F)c2c(=O)n1C1CCCCNC1=O (stereo unspecified)	> 10	> 10	> 10	> 10	> 10	> 10	> 10	> 10	> 10	> 10	> 10	> 10	> 10	> 10	> 10	> 10	> 10	> 10	> 10	–
CC1=C(C(=O)O)N2C(=O)[C@@H](NC(=O)C(c3ccc(O)cc3)N3CSC(=S)N(C(C)C)C3)C2SC1 (stereo partly specified)	> 100	> 100	–	> 100	–	> 100	> 100	–	> 100	–	> 100	–	> 100	> 100	> 100	> 100	–	–	–	–
CN(C)CCCNC(=O)CCNC(=O)c1cc(NC(=O)c2cc(NC(=O)c3cc(NC(=O)c4nc(NC(=O)CCCNC(=O)c5cc(NC(=O)c6cc(NC(=O)c7cc(NC(=O)c8nccn8C)cn7C)cn6C)cn5C)cn4C)cn3C)cn2C)cn1C	> 100	> 100	> 100	> 100	> 100	> 100	> 100	> 100	> 100	> 100	> 100	> 100	> 100	> 100	–	> 100	> 100	> 100	> 100	–
CCC1C(C#N)=C(N)OC2=C1C(=O)CC(C)(C)C2 (stereo unspecified)	> 100	> 100	> 100	> 100	> 100	> 100	> 100	> 100	> 100	> 100	> 100	> 100	> 100	> 100	> 100	–	> 100	–	–	> 100
O=S(=O)(O)c1ccc(O)c2ncc(Cl)cc12	> 100	> 100	> 100	> 100	–	> 100	> 100	> 100	> 100	> 100	> 100	> 100	> 100	–	> 100	> 100	> 100	> 100	> 100	> 100
Cc1c(/C=N/NC(=O)c2cc(Br)cc(Br)c2O)c(=O)n(-c2ccccc2)n1C	> 100	> 100	–	> 100	–	> 100	> 100	–	> 100	–	95.7	–	> 100	> 100	41.7	> 100	94.2	–	–	–
COC(O)C(=O)c1c2c(cc3c1CC1(Cc4cc5c(cc4C1)CCC5)C3)CCC2 (stereo unspecified)	27	–	33.7	39.8	53.3	22.7	22.8	–	33.1	34	28.9	30.8	32.1	31.8	–	35.8	37.4	29	50.4	–
O=C(CCCN1CCC2(CC1)OC(=O)N(c1ccccc1)C2=O)c1ccccc1	> 100	> 100	> 100	> 100	> 100	> 100	> 100	> 100	> 100	> 100	> 100	> 100	> 100	> 100	> 100	46.3	> 100	> 100	> 100	–
Cn1cnc(CCc2ccccc2)n1	> 100	> 100	–	> 100	–	> 100	> 100	–	> 100	–	> 100	–	> 100	> 100	> 100	> 100	> 100	> 100	–	–
O=C1c2c(ccc3c2CCCC3)CC12Cc1ccc3c(c1C2=O)CCCC3	> 100	–	> 100	> 100	> 100	> 100	> 100	> 100	> 100	> 100	> 100	> 100	> 100	> 100	–	> 100	–	> 100	> 100	–
c1ccc([P+](Cc2ccc(C[P+](c3ccccc3)(c3ccccc3)c3ccccc3)cc2)(c2ccccc2)c2ccccc2)cc1	> 100	> 100	> 100	> 100	> 100	> 100	50	> 100	> 100	> 100	> 100	> 100	–	> 100	> 100	> 100	> 100	> 100	> 100	–
COc1ccc2nc(-n3c(/C=C/c4ccccc4O)nc4ccccc4c3=O)sc2c1	> 100	> 100	> 100	> 100	> 100	> 100	> 100	36.5	> 100	> 100	> 100	> 100	> 100	> 100	> 100	> 100	> 100	> 100	–	> 100
CCOC(=O)c1c(N2CCCC2)nsc1Nc1ccc(F)cc1	> 100	> 100	> 100	> 100	> 100	68	> 100	> 100	> 100	> 100	> 100	> 100	46.4	> 100	> 100	46.8	> 100	31.9	46	–
O=C1C(Br)=CC2(C=C1Br)CCNC1=C2C(=O)c2ccccc2C1=O	29.5	15.9	–	30.3	–	> 100	17.2	–	33.7	–	> 100	–	34.7	> 100	29.6	–	72.4	–	–	–
Cc1csc(=S)n1OC(=O)NC1CCCCC1	> 50	> 40.2	–	> 100	–	> 95.5	> 100	–	> 47.3	–	> 100	–	> 100	> 100	> 67.2	> 100	> 100	> 100	–	–
O=C(CCC(NC(=O)OCc1ccccc1)C(=O)OCc1ccccc1)Nc1ccc(OCc2ccccc2)cc1 (stereo unspecified)	17.4	> 31.6	> 31.6	26.3	> 31.6	> 31.6	> 31.6	–	> 31.6	> 31.6	> 100	28.4	> 10	> 31.6	> 31.6	> 10	> 31.6	> 31.6	> 31.6	> 10
COc1cc(OC)c2c(c1)C(=O)C(CC(C)O)=CC2=O (stereo unspecified)	29.9	32.6	–	27.7	–	36.8	19	–	34.9	–	18.3	–	36.2	31.9	25.8	29.9	34.3	25.3	–	–
CCOC(=O)C(=[N+]=[N-])C(=O)C1(C(=O)OCC)CCN(C(=O)c2ccccc2)C1=O (stereo unspecified)	> 100	> 100	> 100	> 100	> 100	> 100	> 100	> 100	> 100	> 100	–	> 100	> 100	> 100	> 100	> 100	> 100	> 100	> 100	–
NC1CC(=O)c2sc(I)cc21 (stereo unspecified)	> 100	> 100	> 100	> 100	–	> 100	–	> 100	–	> 100	> 100	> 100	> 100	> 100	> 100	> 100	> 100	> 100	> 100	> 100
CCOP(=O)(OCC)C1CC(O)C(=O)N1 (stereo unspecified)	> 100	> 100	> 100	> 100	> 100	> 100	> 100	> 100	> 100	> 100	> 100	> 100	> 100	> 100	> 100	> 100	–	–	–	–
CCN(CC)CCCNc1nc(=O)[nH]c(C)c1C(=O)Nc1cccc2cc3ccccc3cc12	> 100	> 100	> 100	> 100	–	> 100	> 100	> 100	> 100	> 100	> 100	> 100	> 100	> 100	> 100	> 100	> 100	> 100	> 100	–
